In brackets after ≈: the same amount, converted by molar mass. Like-named read-outs stand apart in the source and are kept apart here. Bridge positions count the residues as written; N and C are the ends. Square brackets hold non-standard residues; d marks the D form. Peptide text beside a SMILES is read from it. Gly(NCH2CH2Ph) = O=C(O)CNCCc1ccccc1; NMeF = CN[C@@H](Cc1ccccc1)C(=O)O; Tic = O=C(O)[C@@H]1Cc2ccccc2CN1
Key:
[1] = system: EspP(G1123R) assembly in AD202 (bamA+); parameters: method as in PMID 36165532; conditions: cited from earlier work
[2] = system: wild-type EspP assembly in AD202; experiment: Pulse-chase assembly of wild-type EspP in AD202; type: cell-based, Escherichia coli; conditions: 0.8 M sorbitol 2 min after start of chase, 28 °C
Procedure: To analyze the assembly of OMPs in living cells, overnight cultures of HDB164 (MC4100 ara^R bamA101 ompT::spc) transformed with pJH110 (Ptrc-espPΔ5)[65] or AD202 transformed with pRSL5 (Ptrc-espP)[77] or pJH224 [Ptrc-espP (G1123R)][67] were grown in M9 supplemented with 100 μg/mL ampicillin (M9/ampicillin) at 37 °C. The overnight cultures were washed in M9 and added to 50 ml fresh M9/ampicillin at OD550 = 0.02. When the cultures reached OD550 = 0.2, IPTG (10 μM) was added and the cells were incubated for another 30 min at 37 °C before being subjected to pulse-chase labeling as previously described[66]. At each timepoint 1 ml aliquots were removed and proteins were precipitated by adding 10% (v/v) TCA. […] As a control, an equal amount of DMSO was added. […] Radioactive proteins were visualized on a Fuji FLA 9000 imager using phoshophorimaging settings, and data was quantitated using Fuji MultiGauge v.
For experiments that involved EspP or EspP derivatives, the accumulated β-barrel was defined as the normalized β-barrel signal, where the normalization factor was (preproEspPsignal + proEspPsignal + β-domainsignal) at the 0 min timepoint for each condition and each experiment. For some experiments that involved EspP or EspP derivatives, the percent cleavage at each timepoint was also measured and was defined as [β-barrel signal /(proEspPsignal + β-barrelsignal)] x 100. […]

[3] = system: EspP(G1123R) assembly in AD202 (bamA+); experiment: Pulse-chase assembly of slow mutant EspP(G1123R) in AD202; type: cell-based, Escherichia coli; conditions: for effect on EspP(G1123R) assembly when added after the mutant binds to BAM: added 2 min after the start of the chase, peptides 2x MIC, EDTA 2.5 mM, sorbitol 0.8 M
Procedure: AD202 (MC4100 ompT::kan) transformed with pJH224 [Ptrc-espP(G1123R)] were grown to log phase in M9, the expression of espP(G1123R) was induced by adding 10 µM IPTG, and cells were subjected to pulse-chase labeling. […] Immunoprecipitations were performed using an anti-EspP C-terminal peptide antiserum and proteins were resolved by SDS-PAGE. Representative experiments are shown (left), and the completion of EspP(G1123R) assembly was quantitated by calculating the percent of radiolabeled proEspP(G1123R) that underwent autocatalytic cleavage in untreated cells (control) or cells treated with the indicated peptide 2 min after the start of the chase (red arrows) in three biologically independent experiments (right). […] The data are presented as mean values and error bars represent the SEM. In C 2.5 mM EDTA was added 2 min post-chase, and in E cells were harvested and resuspended in M9 (control) or M9 containing 0.8 M sorbitol 2 min post-chase. A representative experiment is shown (left), and the assembly of EspP(G1123R) in cells treated with EDTA or sorbitol or untreated (control) in three biologically independent experiments was quantitated as in B (right).
To analyze the assembly of OMPs in living cells, overnight cultures of HDB164 (MC4100 ara^R bamA101 ompT::spc) transformed with pJH110 (Ptrc-espPΔ5)[65] or AD202 transformed with pRSL5 (Ptrc-espP)[77] or pJH224 [Ptrc-espP (G1123R)][67] were grown in M9 supplemented with 100 μg/mL ampicillin (M9/ampicillin) at 37 °C. The overnight cultures were washed in M9 and added to 50 ml fresh M9/ampicillin at OD550 = 0.02. When the cultures reached OD550 = 0.2, IPTG (10 μM) was added and the cells were incubated for another 30 min at 37 °C before being subjected to pulse-chase labeling as previously described[66]. At each timepoint 1 ml aliquots were removed and proteins were precipitated by adding 10% (v/v) TCA. […] As a control, an equal amount of DMSO was added. In some experiments, 2.5 mM EDTA, pH 8 was added instead of a cyclic peptide. […]

[4] = system: AD202 transformed with pJH224; conditions: 2.5 mM EDTA or peptide at 2x MIC, 5 or 15 min
Procedure: Overnight cultures of AD202 transformed with pJH224 were grown at 37 °C in M9/ampicillin, washed, and added to 55 ml of fresh medium at OD550 = 0.02. When cultures reached OD550 = 0.2, 10 μM IPTG was added and cultures were incubated at 37 °C for an additional 15 min. Cultures were then divided into five 10 ml aliquots and placed into 15 ml tubes. Cells were pelleted in 15 ml tubes (3000 x g, 15 min, room temperature), resuspended in 1 ml pre-warmed M9 and transferred to 50 ml tubes. […] Cells were then placed into 1.7 ml tubes on ice for 5 min and centrifuged (2900 x g, 6 min, 4 °C). The cell pellet was discarded and the supernatant was centrifuged in a TLA.2 rotor in a Beckman Optima MAX-TL ultracentrifuge (100,000 x g, 30 min, 4 °C). Once again the pellet was discarded, and 5 mL 4x LDS sample buffer was then added to 20 mL of each supernatant (which represents the culture medium of ~0.05 OD equivalents), and molecules located in the culture medium were resolved by SDS-PAGE on 12% Novex Tris-Bis minigels (ThermoFisher) using MES running buffer. LPS was visualized using the Molecular Probes Pro-Q Emerald 300 Lipopolysaccharide Gel Stain Kit (ThermoFisher) following the manufacturer’s instructions.

[5] = molecular target: T1, E. coli BamA β-barrel (Escherichia coli, UniProt P0A940); experiment: SPR binding to E. coli BamA β-barrel; conditions: for KD: SPR, N-terminally biotinylated E. coli BamA β-barrel, single cycle kinetics, average of 2, 3, or 4 replicates ± SD; for kon: pH 7.5, read-out: ka
T1 construct: residues 421–810 from strain MG1655; made in house
Text: For SPR, E. coli K-12 BamA (EcBamA; residues 421–810 from strain MG1655), A. baumannii BamA (AbBamA; residues 425–841 from strain ATCC19606) and P. aeruginosa BamA (PaBamA; residues 420–797 from strain PAO1) were synthesized and cloned into pET23b (Millipore Sigma) with a N-terminal Avitag for biotin conjugation. For mRNA display screening, an additional E. coli BamA (421–810) construct (EcBamA′) was designed with an N-terminal His tag, a TEV protease cleavage site, and three point mutations (C690S/C700S/S752C) to allow for site specific biotinylation of residue 752.
For peptide binding assays a Cytiva Series S CAP sensor chip was loaded onto a Biacore T200, and the chip surface was prepared according to the manufacturer’s recommendations. The running buffer was 10 mM HEPES pH 7.5, 150 mM NaCl, 0.1% LDAO. Briefly, the CAP reagent (Cytiva) was diluted 1:10 in HBS-EP buffer (0.01 M HEPES pH 7.4, 0.15 M NaCl, 3 mM EDTA, 0.005% v/v Surfactant P20) and flowed across the chip surface for 300 sec. Biotinylated EcBamA, PaBamA, or AbBamA was then immobilized on the surface by flowing the protein over the chip for 200 sec. Cyclic peptides were injected at concentrations of 12.3, 37, 111, 333 and 1000 nM in single-cycle kinetic mode for 120 sec followed by a 120 sec dissociation period, and after the highest concentration of peptide was injected the dissociation period was 1200 sec. The chip surface was regenerated after each peptide was tested by flowing regeneration solution (8 M guanidine HCl, 1 M NaOH) over the chip surface.

[6] = system: E. coli BamA101 (JCM972, MC4100 bamA101); type: cell-based, Escherichia coli; conditions: in solution, CAMHB broth microdilution
Procedure: (§1) The MICs of the cyclic peptides obtained in the mRNA display screens against E. coli strains JCM158 and JCM972 were measured using broth microdilution in cation-adjusted Mueller−Hinton broth (CAMHB), as recommended by the Clinical and Laboratory Standards Institute. In addition, zone of inhibition (ZOI) assays using JCM158, JCM972, AM710, AM711, MB5746, Acinetobacter baumannii ATCC17987, Pseudomonas aeruginosa MB5919, and Staphylococcus aureus Col were performed to provide a visual display of the relative susceptibility of the strains to the peptides. Briefly, ZOI studies were performed by first growing the bacteria in CAMHB to late exponential phase at 37 °C. Molten CAMHA (CAMHB containing 1.2% agar) was equilibrated to 48 °C in a water bath for 60 min. Cells were then mixed with 30 mL of the molten CAMHA at a 1:1000 dilution and immediately poured onto an Omni-tray plate (NUNC cat# 242811). The agar plate was kept at room temperature for 20 min to solidify and further dried in a biosafety cabinet for ~20 min. Each peptide was dissolved in DMSO, and 2–5 µL aliquots were dispensed onto the top of the plate in a two-fold dilution series in which the peptides were diluted in DMSO. After the liquid was absorbed, plates were incubated at 37 °C for 18 h, and images were acquired using a Hi-Res imaging system.

[7] = system: E. coli WT (JCM158, MC4100 ara^r); type: cell-based, Escherichia coli
Procedure: as §1

Row | SMILES | effect on EspP(G1123R) assembly when added after the mutant binds to BAM [3] | KD [5] | kon [5] | MIC E. coli BamA101 [6] | MIC E. coli WT ([7]; JCM158, 18 h) | further results
1 | NC(N)=NC(=O)CC(Nc1nc(N=C(N)N)nc(NC2CCC(NC(=O)Cn3nnc(-c4ccc(F)cc4)n3)CC2)n1)C1CC1 (centres unmarked) [MRL-494] |  |  |  |  |  | effect on EspP(G1123R) assembly when added after the protein binds to BAM [1]: inhibit the assembly
2 | OC[C@@H](O)[C@@H](O)[C@H](O)[C@@H](O)CO [sorbitol] | accelerate |  |  |  |  | effect on assembly of wild-type EspP, sorbitol [2]: slightly delay
3 | O=C(O)CN(CCN(CC(=O)O)CC(=O)O)CC(=O)O [EDTA] | accelerate |  |  |  |  | release of LPS into the culture medium [4]: releasing LPS into the culture medium; effect on EspP(G1123R) assembly, EDTA added prior to synthesis ([3]; 2.5 mM EDTA added 1 min or 5 min before the start of the chase): accelerates
4 | CC(C)[C@@H]1NC(=O)[C@H](CO)NC(=O)[C@H](CCCNC(=N)N)NC(=O)[C@H](CO)NC(=O)[C@@H]2CCCN2C(=O)[C@H](Cc2c[nH]c3ccccc23)NC(=O)[C@@H]2Cc3ccccc3CN2C(=O)[C@H](Cc2c[nH]c3ccccc23)NC(=O)[C@H](CCCNC(=N)N)NC(=O)CNC(=O)[C@H](CO)NC(=O)[C@H](Cc2ccccc2)NC(=O)CSC[C@@H](C(=O)NCC(N)=O)NC(=O)CNC1=O [CP2, F.S.G.R.W.Tic.W.P.S.R.S.V.G.C.G] ({CH2CO}-FSGRW[Tic]WPSRSVGCG-NH2; thioether N-14) |  | low-nanomolar range | 430000 ± 2.9e+10 M⁻¹ s⁻¹ | 6.3 µM (≈ 11.2 µg/mL) | > 50 µM | 
5 | CC(C)C[C@@H]1NC(=O)[C@H](Cc2ccccc2)NC(=O)CSC[C@@H](C(=O)NCC(N)=O)NC(=O)[C@H](CC(=O)O)NC(=O)[C@H](Cc2ccccc2)N(C)C(=O)CNC(=O)[C@H](CCCNC(=N)N)NC(=O)[C@H](C(C)C)NC(=O)[C@@H]2CCCN2C(=O)[C@H](CCCNC(=N)N)NC(=O)[C@H](Cc2c[nH]cn2)NC(=O)[C@H](Cc2ccc(O)cc2)NC(=O)[C@H](Cc2ccccc2)N(C)C(=O)[C@H](Cc2c[nH]c3ccccc23)NC1=O [CP1, F.L.W.MePhe.Y.H.R.P.V.R.G.MePhe.D.C.G] ({CH2CO}-FLW[NMeF]YHRPVRG[NMeF]DCG-NH2; thioether N-14) |  | low-nanomolar range |  | 12.5 µM (≈ 24.6 µg/mL) |  | MIC E. coli WT ([7]; in solution, CAMHB broth microdilution): > 50 µM
6 | CC(C)C[C@@H]1NC(=O)CN(CCc2ccccc2)C(=O)[C@H](Cc2ccc(O)cc2)NC(=O)[C@H](CCCNC(=N)N)NC(=O)[C@H](CCCNC(=N)N)NC(=O)[C@H](Cc2ccccc2)NC(=O)CSC[C@@H](C(=O)NCC(N)=O)NC(=O)[C@H](Cc2ccc(O)cc2)NC(=O)[C@@H]2Cc3ccccc3CN2C(=O)[C@H](C(C)C)NC(=O)[C@H](Cc2c[nH]c3ccccc23)NC(=O)[C@H](Cc2ccc(O)cc2)NC(=O)[C@H](CC(N)=O)NC(=O)[C@H](CC(=O)O)NC1=O [CP3, F.R.R.Y.PeGly.L.D.N.Y.W.V.Tic.Y.C.G] ({CH2CO}-FRRY[Gly(NCH2CH2Ph)]LDNYWV[Tic]YCG-NH2; thioether N-14) |  | low-nanomolar range | 160000 ± 3e+09 M⁻¹ s⁻¹ | 6.3 µM (≈ 13.3 µg/mL) | > 50 µM | 

— paper PMC11986105, “Antibacterial macrocyclic peptides reveal a distinct mode of BamA inhibition” (Nature Communications, 2025)
